Molecules are shown by their SMILES.

The subject of one assay is NKT cells of mouse. The following applies: cited from earlier work.
The subject of a further assay is human NKT cells. The following applies: cited from earlier work.
In assay [1] the test system is NKT cells. To be noted: cited from earlier work.
The subject of assay [2] is NKT cells. The following applies: cited from earlier work. The source holds these as a separate data set.
For assay [3], the system named is NKT cells. To be noted: cited from earlier work. This is another data set of the same source.
Assay [4] relates to NKT cells. To be noted: cited from earlier work. This is another data set of the same source.
Assay [5] relates to NKT cells. As to the kind of experiment: Influence of synthetic glycolipid on cytokine production of NKT cells: IFN-γ in mouse plasma after tail vein administration. The format is in vivo, C57BL/6 mice. To be noted: 100 μg/kg body weight, Cytometric Bead Array, data in FIG. 1-3. The method, then: A solution of each of α-GalCer (KRN7000), compound F and compound H in dimethyl sulfoxide (DMSO) was prepared at a concentration of 1 mg/mL. The above-mentioned DMSO solution was diluted with saline (manufactured by Otsuka Pharmaceutical Co., Ltd.) containing 0.5% tween 20 (Bio-Rad) such that the dose became 100 μg/kg body weight when 200 μL per mouse was administered from the tail vein.
The prepared solutions (200 μL) of compounds F and H were respectively injected to C57BL/6 mice (5 mice per group) from the tail vein. As a control substance, α-GalCer (KRN7000) was used, and a solution (200 μL) of α-GalCer (KRN7000) prepared in the same manner such that the dose became 100 μg/kg body weight was injected into the tail vein. The group administered with saline (200 μL) containing 0.5% tween 20 (medium) was used as a negative control. The blood (80 μL) immediately before administration and after administration (after lapse of the time indicated in FIGS. 1-3) was collected from the orbital sinus and plasma was prepared.
The IFN-γ content of the plasma before administration and after administration (after lapse of the time indicated in FIG. 1) was measured by Cytometric Bead Array system (BD Biosciences) which is one of the ELISA methods. The measurement results (mean) of the production amount of IFN-γ and the standard deviation thereof (STDEV) are shown in FIG. 1.

The subject of assay [6] is NKT cells. To be noted: cited from earlier work. The source holds these as a separate data set.

Regarding `CCCCCCCCCCCCCCCCCCCCCCCCCC(=O)N[C@@H](CCC1OC(CO)C(O)C(O)C1O)[C@H](O)[C@H](O)CCCCCCCCCCCCCC` (stereo partly drawn) [α-C-GalCer], the “activation of mouse NKT cells and IFN-γ production” value in the assay on NKT cells of mouse is “strongly activates NKT cells of mouse and preferentially produces IFN-γ”. Besides, the “activity in vitro on human NKT cells” value in the assay with human NKT cells is “hardly shows activity”.
In the case of `CCCCCCCCCCCCCCCCCCCCCCCCc1cn([C@@H](COC2OC(CO)C(O)C(O)C2O)[C@H](O)[C@H](O)CCCCCCCCCCCCCC)nn1` (some centres unmarked) [compound 7], the “type of cytokine production induced” value in the assay on NKT cells [1] is “induce production of mostly Th2 type cytokines such as IL-4”.
Take `CCCCCCCCCCCCCCCCCCCCCCCCCC(=O)N[C@@H](COC1OC(COC)C(O)C(O)C1O)[C@H](O)[C@H](O)CCCCCCCCCCCCCC` (some centres unmarked) [RCAI-61]: in the assay with NKT cells [2], the “NKT cell activation / IFN-γ production” value is given as “induces production of IFN-γ in large amounts”. Also, the “activity in the system of mouse” value with NKT cells [3] was “strong activity”. Also, in the assay with NKT cells [4], the “activity in the system of human (in vitro)” value is reported as “strong activity”.
For the compound `CCCCCCCCCCCCCCCCCCCCCCCCNC(=O)N[C@@H](CO[C@H]1O[C@H](CO)[C@H](O)[C@H](O)[C@H]1O)[C@H](O)[C@H](O)CCCCCCCCCCCCCC` [compound F, (2S,3S,4R)-1-(α-D-galactopyranosyloxy)-2-(tetracosylureido)-3,4-octadecanediol], the “IFN-γ production compared with α-GalCer (KRN7000)” value in the assay on NKT cells [5] was “selectively induced IFN-γ production in larger amounts than α-GalCer (KRN7000)”.
For `CCCCCCCCCCCCCCCCCCCCCCCCNC(=O)N[C@@H](CO[C@H]1O[C@H](COC)[C@H](O)[C@H](O)[C@H]1O)[C@H](O)[C@H](O)CCCCCCCCCCCCCC` [compound H, (2S,3S,4R)-1-(6-O-methyl-α-D-galactopyranosyloxy)-2-(tetracosylureido)-3,4-octadecanediol], the “IFN-γ production compared with α-GalCer (KRN7000)” value in the assay on NKT cells [5] is reported as “selectively induced IFN-γ production in larger amounts than α-GalCer (KRN7000)”.
Turning to `CCCCCCCCCCCCCCCCCCCCCCCCCC(=O)N[C@@H](COC1OC(CO)C(O)C(O)C1O)[C@H](O)[C@H](O)CCCCCCCCCCCCCC` (some centres unmarked) [KRN7000], the “immunostimulatory activity among synthesized analogs” value in the assay on NKT cells [6] is “shows the strongest activity”.
As for `CCCCCCCCCCCCCCCCCCCCCCCCCC(=O)N[C@@H](COC1CC(CO)C(O)C(O)C1O)[C@H](O)[C@H](O)CCCCCCCCCCCCCC` (some centres unmarked) [RCAI-56], the “NKT cell activation / IFN-γ production” value with NKT cells [2] was “strongly activates NKT cells and induces production of a large amount of IFN-γ”. The “activity in the system of mouse” value in the assay with NKT cells [3] was “strong activity”. The “activity in the system of human (in vitro)” value in the assay with NKT cells [4] is “strong activity”.
As for `CCCCCCCCCCCCCCCCS(=O)(=O)N[C@@H](COC1OC(CO)C(O)C(O)C1O)[C@H](O)[C@H](O)CCCCCCCCCCCCCC` (some centres unmarked) [compound 5], the “type of cytokine production induced” value in the assay on NKT cells [1] is reported as “induce production of mostly Th2 type cytokines such as IL-4”.
Take `CCCCCCCCCCCCCCCCCCCCCCCCC(F)(F)C(=O)N[C@@H](COC1OC(CO)C(O)C(O)C1O)[C@H](O)[C@H](O)CCCCCCCCCCCCCC` (some centres unmarked) [compound 6]: in the assay on NKT cells [1], the “type of cytokine production induced” value was “induce production of mostly Th2 type cytokines such as IL-4”.
